According to patent US5354747A, “2-, 3-, 4-, 5-, 6-, 7-, 8-, 9- and/or 10-substituted dibenzoxazepine and dibenzthiazepine compounds, pharmaceutical compositions and methods of use” (G. D. Searle & Co., priority 1993, dated 1994):
Structures can show the parent of a compound that is named as a salt.

Tests used:
[1] = system: prostaglandin E2 -induced contractions of segments of guinea pig ileum; assay: Prostaglandin (PGE) Antagonism Assay; format: cell-based; settings: dose ratio of prostaglandin E2 EC50 doses with/without test compound, initial concentration 3 micromolar
Method: In order to determine the effectiveness of several of the compounds of the present invention ("test compounds") as prostaglandin E2 antagonists,a prostaglandin antagonism assay was conducted, as described below, to determine the ability of these compounds to inhibit prostaglandin E2 -induced contractions of segments of guinea pig ileum. […] Male albino guinea pigs weighing 200 to 500 grams were sacrificed by cervical dislocation. The ilea were then quickly removed from the guinea pigs and placed in a modified Tyrode solution, a solution which is known to those skilled in the art, containing one-half of the usual amount of magnesium ions. Segments of ileum about 2 cm long were then cut and mounted in a 10-mL tissue bath containing the modified Tyrode solution. The solution was maintained at 37° C. and aerated with a gaseous mixture of 95% oxygen and 5% carbon dioxide. Data for a control prostaglandin E2 dose response curve plotting concentration of prostaglandin E2 versus the intensity of contractions, detected isotonically, was then obtained by experimentally adjusting the dose of the prostaglandin E2 being injected into the tissue bath, in a manner known by those of skill in the art. Solutions or suspensions containing an initial concentration (3 micromolar) of a test compound in modified Tyrode solution ("test solutions/suspensions") were then separately substituted for the control bath solution. Each test solution/suspension was then kept in constant contact with the ileum tissue, except for brief periods to drain the bath in preparation for rinsing with fresh test solution/suspension. A second prostaglandin E2 dose response curve was then generated for prostaglandin E2 in the presence of a test compound. A dose ratio (DR) of EC50 doses was then calculated from the results of each test in a manner known by those of skill in the art. A control dose response curve (DRC) is produced in isolated segments of guinea pig ileum mounted in an automated apparatus with six concentrations of prostaglandin E2. A solution or suspension of test compound is substituted for the control bathing solution and is incubated for thirty minutes. An additional prostaglandin E2 dose response curve is produced in the presence of the test compound. A dose ratio is calculated from the EC50 values obtained from duplicate replications on each concentration of the test compound. […] The results of this prostaglandin antagonism assay are presented in Table 2 below in terms of their dose ratio. The compounds of the present invention which were tested in this assay, and for which results are presented in Table 2, correspond to the particular examples specified in Table 2.

[2] = system: Charles River male albino mice; assay: Writhing Assay (PBQ-induced writhing, analgesic activity); format: in vivo; settings: Intragastric; for responders at 30 mg/kg / ED50: Mus musculus, po; for responders at 30 mg/kg: 25 min, read-out: number of mice out of nine or ten in which a test compound produced analgesia (converted); for ED50: PBQ writhing, mice, maximum likelihood function, read-out: calculated ED50 value (dose which produced analgesia in 50% of the mice)
Source text: The Writhing Assay is one of the most widely-used experimental procedures for measuring the analgesic activity of different narcotic and nonnarcotic analgesic agents, and involves the continuous, chemically-induced pain of visceral origin to an animal, such as a mouse or rat. [Gyires et al., Arch. int. Pharmacodyn, 267, 131-140 (1984); […] al., Fed. Proc., 15, 494 (1956); Koster et al., Fed. Proc., 18, 412 (1959); and Witken et al., J. Pharmacol. exp. Ther., 133, 400-408 (1961).] Chemicals which may be used to induce this pain include phenylbenzoquinone (PBQ) and acetic acid. As a result of the chemical irritation to the animal, a characteristic stretching and writhing of the animal (dorsiflexion of the animal's back, extension of its hindlimbs and the strong contraction of its abdominal musculature) will generally occur. […] Drugs which reduce the number of writhes of the animal appear to restore the normal nociceptive threshold of the animal. Charles River male albino mice, weighing 20 to 30 grams were used in this assay. Twenty-five minutes after intragastric administration to nine or ten mice of 30 mg per kilogram of body weight of a compound of the present invention ("test compound"), […] of body weight of a 0.025% w/v solution of PBQ was injected intraperitoneally into each mouse. Ten mice which were given saline in place of a test compound of the invention were used as a control group. Five minutes later, each mouse was individually placed into a glass beaker for observation, and the number of writhes occurring during the following ten-minute period was counted. A test compound was considered to have produced analgesia in a mouse if, in accordance with the conditions set forth above, and under the test criteria employed for this assay, after the administration of 30 mg per kilogram of body weight of a compound of the present invention to the mouse, the number of writhes elicited by a mouse injected with PBQ was equal to, or less than, one-half the median number of writhes recorded for the saline-treated control group of mice that day, as described by Taber in "Predictive Value of Analgesic Assays in Mice and Rats," Advances in Biochemical Psychopharmacology, 8, 191 (1974). […] If this initial screening dose of the test compound produced analgesia in seven of nine or ten mice, then the effect of additional doses of the test compound on the writhing response was evaluated, and then the ED50 value (that dose of a compound which produced analgesia in 50% of the mice to which the compound was administered) was generally calculated. A maximum likelihood function was used to determine the ED50 value. (The slopes of the dose-response curves for all test compounds analyzed were compared as described by Tallarida and Murray, Manual of Pharmacologic Calculations, Page 11 (Springer Verlag, New York, 1981)). The results for the particular compounds of the present invention analyzed in this assay, and discussed in the examples identified below which correspond thereto, are presented in Table 1 hereinbelow. The compounds of the present invention which were tested in this assay, and for which results are presented in Table 1, correspond to the particular examples specified in Table 1. The fractions indicate the number of mice out of nine or ten in which a test compound produced analgesia, and the whole numbers are the calculated ED50 values.

[3] = 30 mg per kilogram of body weight 25 min before PBQ i.p., writhes equal to or less than one-half the control median

Molecule	Dose Ratio [1]	responders at 30 mg/kg [2, 3]	ED50 [2]	number of mice out of nine or ten in which a test compound produced analgesia [2, 3]
CC(C)N1CCN(C(=O)N2Cc3ccccc3Oc3ccc(Cl)cc32)CC1.Cl [Example 22, 8-chloro-10,11-dihydro-10-[[4-(1-methylethyl]-1-piperazinyl]carbonyl]dibenz[b,f][1,4]oxazepine, hydrochloride]	3.0	30%	–	–
Cl.O=C(Cc1ccncc1)N1CCCN(C(=O)N2Cc3ccccc3Oc3ccc(Cl)cc32)CC1 [Example 81, 1-[(8-chlorodibenz[b,f][1,4]oxazepin-10(11H)-yl)carbonyl]hexahydro-4-(4-pyridinylacetyl)-1H-1,4-diazepine, monohydrochloride]	32	–	–	–
CCCCCCCCCCN1CCN(C(=O)N2Cc3ccccc3Oc3ccc(Cl)cc32)CC1.Cl [Example 15, 8-chloro-10-[(4-decyl-1-piperazinyl)carbonyl]-10,11-dihydrodibenz[b,f][1,4]oxazepine, monohydrochloride]	2.1	–	6.4 mg/kg	–
CCOC(=O)C1CN(C(=O)N2Cc3ccccc3Oc3ccc(Cl)cc32)CCN1c1ccccc1 (stereo not shown) [Example 50, ethyl 4-[(8-chlorodibenz[b,f][1,4]oxazepin-10(11H)-yl)carbonyl]-1-phenyl-2-piperazinecarboxylate]	2.7	–	–	–
CCCN1CCCN(C(=O)N2Cc3ccccc3Oc3ccc(Cl)cc32)CC1 [Example 24, monohydrochloride]	11.9	–	14.7 mg/kg	–
8-chloro-10,11-dihydro-10-[[4-(2-pyridinyl)-1-piperazinyl]carbonyl]dibenz[b,f][1,4]oxazepine, monohydrochloride [Example 11]	–	–	–	1/10
O=C(Cc1ccncc1)N1CCN(C(=O)N2Cc3ccccc3Oc3ccc(Cl)cc32)CC1 [Example 79, 1-[(8-Chlorodibenz[b,f][1,4]oxozepin-10(11H)-yl)carbonyl]-4-[1-oxo-2(4-pyridinyl)-ethyl]piperazine, monohydrochloride, monohydrate]	10	–	–	–
O=C(N1CCN(CCc2ccccc2)CC1)N1Cc2ccccc2Oc2ccccc21 [Example 41, 10,11-dihydro-10-[[4-(2-phenylethyl)-1-piperazinyl]carbonyl]dibenz[b,f][1,4]oxazepine, monohydrochloride]	2.6	100%	–	–
Cl.O=C(c1ccncc1)N1CCN(C(=O)N2Cc3ccccc3Oc3ccc(Cl)cc32)CC1 [Example 29, 1-[(8-chlorodibenz[b,f][1,4]oxazepin-10(11H)-yl)carbonyl]-4-(4-pyridinylcarbonyl)piperazine, monohydrochloride]	2.2	50%	–	–
Cl.O=C(N1CCN(Cc2ccsc2)CC1)N1Cc2ccccc2Oc2ccc(Cl)cc21 [Example 47, 8-chloro-10,11-dihydro-10-[[4-(3-thienylmethyl)-1-piperazinyl]carbonyl]dibenz[b,f][1,4]oxazepine, monohydrochloride]	2.9	70%	–	–
O=C(C1CCN(C(=O)N2Cc3ccccc3Oc3ccc(Cl)cc32)CC1)N(CCO)CCO [Example 3, 1-[(8-chlorodibenz[b,f][1,4]oxazepin-10(11H)yl)carbonyl]-N,N-bis(2-hydroxyethyl)-4-piperidinecarboxamide]	1.5	20%	–	–
CCN1CCN(C(=O)N2Cc3ccccc3Oc3ccc(Cl)cc32)CC1.Cl [Example 19, 8-chloro-10-[(4-ethyl-1-piperazinyl)carbonyl]-10,11-dihydrodibenz[b,f][1,4]oxazepine, hydrochloride]	6.0	22.2%	–	–
Cl.O=C(N1CCN(Cc2ccco2)CC1)N1Cc2ccccc2Oc2ccc(Cl)cc21 [Example 65, 8-chloro-10-[[4-(2-furanylmethyl)-1-piperazinyl]carbonyl]-10,11-dihydrodibenz[b,f][1,4]oxazepine, monohydrochloride]	8.4	40%	–	–
Cl.O=C(N1CCN(CCc2ccccc2)CC1)N1Cc2ccccc2Oc2ccc(Cl)cc21 [Example 40, 8-Chloro-10,11-dihydro-10-[[4-(2-phenylethyl)-1-piperazinyl]carbonyl]dibenz[b,f][1,4]oxazepine, monohydrochloride]	4.1	20%	–	–
Cl.O=C(N1CCC(N2CCCCC2)CC1)N1Cc2ccccc2Oc2ccc(Cl)cc21 [Example 13, 10-([1,4'-bipiperidin]-1'-ylcarbonyl)-8-chloro-10,11-dihydrodibenz[b,f][1,4]oxazepine, hydrochloride]	1.6	90%	–	–
O=C(N1CCN2CCCCC2C1)N1Cc2ccccc2Oc2ccc(Cl)cc21 (stereo not shown) [Example 5, 8-chloro-10,11-dihydro-10-[(octahydro-2H-pyrido[1,2,-a]pyrazin-2-yl)carbonyl]dibenz[b,f][1,4]oxazepine hydrochloride]	2.4	40%	–	–
Cl.O=C(N1CCCNCC1)N1Cc2ccccc2Oc2ccc(Cl)cc21 [Example 61, 8-chloro-10-[(hexahydro-1H-1,4-diazepin-1-yl)carbonyl]-10,11-dihydrodibenz[b,f][1,4]oxazepine, hydrochloride]	4.8	60%	–	–
O=C(N1CCC(N2CCCC2)CC1)N1Cc2ccccc2Oc2ccc(Cl)cc21 [Example 34, 8-chloro-10,11-dihydro-10-[[4-(1-pyrrolidinyl)-1-piperidinyl]carbonyl]dibenz[b,f][1,4]oxazepine]	–	70%	–	–
O=C(c1ccco1)N1CCN(C(=O)N2Cc3ccccc3Oc3ccc(Cl)cc32)CC1 [Example 38, 1-[(8-chlorodibenz[b,f][1,4]oxazepin-10(11H)-yl)carbonyl]-4-(2-furanylcarbonyl)piperazine]	–	10%	–	–
Cl.O=C(N1CCC(N2CCCC2)CC1)N1Cc2ccccc2Oc2ccc(Cl)cc21 [Example 35, 8-chloro-10,11-dihydro-10-[[4-(1-pyrrolidinyl)-1-piperidinyl]carbonyl]dibenz[b,f][1,4]oxazepine, hydrochloride]	1.0	–	–	–
O=C(N1Cc2ccccc2Oc2ccc(Cl)cc21)N1CCCCC1CCN1CCCC1 (stereo not shown) [Example 49, 8-chloro-10,11-dihydro-10-[[2-[2-(1-pyrrolidinyl)ethyl]-1-piperidinyl]carbonyl]dibenz[b,f][1,4]oxazepine, hydrochloride]	–	20%	–	–
